Patent US8815891B2, “Tricyclic derivative or pharmaceutically acceptable salts thereof, preparation method thereof, and pharmaceutical composition containing the same” (Je Il Pharmaceutical Co., Ltd., priority 2008, dated 2014)
Counter-ions that a name gives are not always drawn.

molecular target: PARP-1 enzyme (Homo sapiens (Human), UniProt P09874); test: Poly(ADP-ribose)polymerase [PARP-1] enzyme inhibitory activity (Trevigen PARP Assay kit); format: biochemical; conditions: not given
Experimental: The activity of the compounds according to the present invention to inhibit the PARP-1 enzyme was examined using a PARP Assay kit (4671-096-K) purchased from Trevigen. The assay was performed following a modified previously reported method by Lee et al [Methods Find, Exp. Clin. Pharmacol., 27, 617-622, 2005].
Histone was coated on 384-well plate, which is a small volume PS plate (784101) of Greiner Bio-One, and left at 25° C. for 2 hours. After that, the plate was rinsed four times with PBS (7.5 mM Na2HPO4, 2.5 mM NaH2PO4, 145 mM NaCl, pH 7.4), and in order to prevent non-specific reaction, the Strep-diluent (provided from kit of Trevigen) was added and left at 25° C. for one hour. After one hour, the plate was again rinsed with PBS four times, and the compounds of the Examples in various concentrations were put into reactant containing PARP-1 enzyme (0.12 unit/well), 2×PARP cocktail (1.95 mM NAD^+, 50 uM biotinylated NAD^+, and activated DNA in 50 mM Tris pH 8.0, 25 mM MgCl2) and allowed to react at 25° C. for 30 minutes. After 30 minutes, each well was rinsed with PBS four times, and in order to measure the amount of rybosylation by the PARP enzyme, strepavidin-linked peroxidase (Strep-HRP, 1:1000 diluted) was added and allowed to react at 37° C. for 30 minutes. The plate was rinsed with PBS four times, and TACS-Sapphire substrate was put and allowed to react at 25° C. for 10 minutes so that color reaction occurred. Finally, the reaction was terminated by the addition of 0.2 N HCl. The amount of histone ribosylation formed by PARP-1 enzyme was quantified at 450 nm using Wallac EnVision™ (PerkinElmer Oy, Turku, Finland).

Chain of PARP-1 enzyme (P09874 whole entry): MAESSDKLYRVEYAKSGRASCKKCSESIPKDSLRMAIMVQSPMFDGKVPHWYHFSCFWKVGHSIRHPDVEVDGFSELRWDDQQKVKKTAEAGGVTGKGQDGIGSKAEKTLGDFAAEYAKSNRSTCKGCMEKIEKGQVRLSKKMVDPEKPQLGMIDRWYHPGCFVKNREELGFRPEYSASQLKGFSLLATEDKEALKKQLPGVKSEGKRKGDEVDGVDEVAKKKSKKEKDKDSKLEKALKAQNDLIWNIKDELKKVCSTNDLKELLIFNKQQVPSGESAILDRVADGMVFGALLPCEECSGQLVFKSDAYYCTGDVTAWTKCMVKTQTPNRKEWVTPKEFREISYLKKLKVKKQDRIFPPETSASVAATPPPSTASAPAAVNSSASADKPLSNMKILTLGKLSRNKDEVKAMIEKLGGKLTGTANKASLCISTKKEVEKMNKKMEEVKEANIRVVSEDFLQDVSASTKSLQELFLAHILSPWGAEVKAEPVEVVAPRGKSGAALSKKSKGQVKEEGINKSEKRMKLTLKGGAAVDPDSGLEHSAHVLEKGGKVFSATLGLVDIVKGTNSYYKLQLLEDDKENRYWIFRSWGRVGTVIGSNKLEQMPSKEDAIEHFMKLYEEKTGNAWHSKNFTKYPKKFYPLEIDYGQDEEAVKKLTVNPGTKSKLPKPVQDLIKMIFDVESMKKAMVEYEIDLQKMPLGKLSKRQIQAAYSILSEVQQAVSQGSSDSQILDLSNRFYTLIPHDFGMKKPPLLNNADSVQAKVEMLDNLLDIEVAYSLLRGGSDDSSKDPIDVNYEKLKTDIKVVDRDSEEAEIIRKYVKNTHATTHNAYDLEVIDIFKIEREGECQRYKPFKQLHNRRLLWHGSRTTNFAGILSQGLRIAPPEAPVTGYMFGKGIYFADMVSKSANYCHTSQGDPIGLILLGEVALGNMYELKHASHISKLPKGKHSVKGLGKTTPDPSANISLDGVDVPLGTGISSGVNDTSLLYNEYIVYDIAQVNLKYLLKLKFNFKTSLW

SMILES	IC50
COc1cc(CN2CCC(=NO)CC2)cc2[nH]c(=O)c3c(c12)NCCC3 [Example 79, 8-{[4-(Hydroxyimino)piperidine-1-yl]methyl}-10-methoxy-1,2,3,4-tetrahydrobenzo[h][1,6]naphthyridine-5(6H)-one trihydrochloride]	180 nM

same assay, conditions: PARP-1 enzyme, histone ribosylation, 450 nm; read-out: PARP-1 Inhibitory activity IC50

IC50	SMILES
> 4000 nM	O=c1[nH]c2cc(CNCC(F)(F)F)ccc2c2c1CCCN2 [Example 62, 8-[(2,2,2-Trifuloroethylamino)methyl]-1,2,3,4-tetrahydrobenzo[h][1,6]naphthyridine-5(6H)-one dihydrochloride]
540 nM	O=c1[nH]c2cc(Cn3ccnc3)ccc2c2c1CCCN2 [Example 64, 8-[(1H-Imidazole-1-yl)methyl]-1,2,3,4-tetrahydrobenzo[h][1,6]naphthyridine-5(6H)-one hydrochloride]
1540 nM	O=c1[nH]c2cc(Cn3cccc3)ccc2c2c1CCCN2 [Example 65, 8-[(1H-Pyrrole-1-yl)methyl]-1,2,3,4-tetrahydrobenzo[h][1,6]naphthyridine-5(6H)-one hydrochloride]
> 4000 nM	CN1CCCc2c1c1ccc(CN3CCCCC3)cc1[nH]c2=O [Example 69, 1-Methyl-8-(piperidine-1-ylmethyl)-1,2,3,4-tetrahydrobenzo[h][1,6]naphthyridine-5(6H)-one dihydrochloride]
50 nM	CCN(C)Cc1cc(OC)c2c3c(c(=O)[nH]c2c1)CCCN3 [Example 76, 8-{[Ethyl(methyl)amino]methyl}-10-methoxy-1,2,3,4-tetrahydrobenzo[h][1,6]naphthyridine-5(6H)-one]

SMILES	IC50
O=c1[nH]c2cc(CN3CCCC3)ccc2c2c1CCCN2 [Example 67, 8-(Pyrrolidine-1-ylmethyl)-1,2,3,4-tetrahydrobenzo[h][1,6]naphthyridine-5(6H)-one dihydrochloride]	< 1000 nM
COc1cc(CN(C)CCCl)cc2[nH]c(=O)c3c(c12)NCCC3 [Example 85, 8-{[(2-Chloroethyl)(methyl)amino]methyl}-10-methoxy-1,2,3,4-tetrahydrobenzo[h][1,6]naphthyridine-5(6H)-one dihydrochloride]	180 nM

same assay, conditions: dihydrochloride; read-out: PARP-1 Inhibitory activity IC50

SMILES	IC50
O=c1[nH]c2cc(CN3CCCC3)ccc2c2c1CCCN2 [Example 67, 8-(Pyrrolidine-1-ylmethyl)-1,2,3,4-tetrahydrobenzo[h][1,6]naphthyridine-5(6H)-one dihydrochloride]	760 nM

same assay, conditions: read-out: PARP-1 Inhibitory activity IC50

SMILES	IC50
CN(CCC(=O)O)Cc1ccc2c3c(c(=O)[nH]c2c1)CCCN3 [Example 58, 3-{Methyl[(5-oxo-1,2,3,4,5,6-hexahydrobenzo[h][1,6]naphthyridine-8-yl)methyl]amino}propanoic acid dihydrochloride]	920 nM
CC(C)N(C)Cc1ccc2c3c(c(=O)[nH]c2c1)CCCN3 [Example 59, 8-{[Isopropyl(methyl)amino]methyl}-1,2,3,4-tetrahydrobenzo[h][1,6]naphthyridine-5(6H)-one dihydrochloride]	190 nM
COCCN(C)Cc1ccc2c3c(c(=O)[nH]c2c1)CCCN3 [Example 60, 8-{[(2-Methoxyethyl)(methyl)amino]methyl}-1,2,3,4-tetrahydrobenzo[h][1,6]naphthyridine-5(6H)-one dihydrochloride]	120 nM
N#CCNCc1ccc2c3c(c(=O)[nH]c2c1)CCCN3 [Example 63, 2-[(5-Oxo-1,2,3,4,5,6-hexahydrobenzo[h][1,6]naphthyridine-8-yl)methylamino]acetonitrile dihydrochloride]	1020 nM
CCN(CC)Cc1ccc2c3c(c(=O)[nH]c2c1)CCCN3C [Example 68, 8-[(Diethylamino)methyl]-1-methyl-1,2,3,4-tetrahydrobenzo[h][1,6]naphthyridine-5(6H)-one dihydrochloride]	1190 nM
CN1CCCc2c1c1ccc(CN3CCOCC3)cc1[nH]c2=O [Example 70, 1-Methyl-8-(morpholinomethyl)-1,2,3,4-tetrahydrobenzo[h][1,6]naphthyridine-5(6H)-one dihydrochloride]	1090 nM
CCN(C)Cc1ccc2c3c(c(=O)[nH]c2c1)CCCN3C [Example 71, 8-{[Ethyl(methyl)amino]methyl}-1-methyl-1,2,3,4-tetrahydrobenzo[h][1,6]naphthyridine-5(6H)-one dihydrochloride]	3000 nM
CCNCc1cc(OC)c2c3c(c(=O)[nH]c2c1)CCCN3 [Example 75, 8-[(Ethylamino)methyl]-10-methoxy-1,2,3,4-tetrahydrobenzo[h][1,6]naphthyridine-5(6H)-one dihydrochloride]	50 nM
COc1cc(CN2CCCC2)cc2[nH]c(=O)c3c(c12)NCCC3 [Example 77, 10-Methoxy-8-(pyrrolidine-1-ylmethyl)-1,2,3,4-tetrahydrobenzo[h][1,6]naphthyridine-5(6H)-one dihydrochloride]	50 nM
COc1cc(CN2CCC(=O)CC2)cc2[nH]c(=O)c3c(c12)NCCC3 [Example 78, 10-Methoxy-8-[(4-oxopiperidine-1-yl)methyl]-1,2,3,4-tetrahydrobenzo[h][1,6]naphthyridine-5(6H)-one dihydrochloride]	110 nM
CON=C1CCN(Cc2cc(OC)c3c4c(c(=O)[nH]c3c2)CCCN4)CC1 [Example 80, 10-Methoxy-8-[(4-(methoxyimino)piperidine-1-yl)methyl]-1,2,3,4-tetrahydrobenzo[h][1,6]naphthyridine-5(6H)-one trihydrochloride]	140 nM
COCCN(C)Cc1cc(OC)c2c3c(c(=O)[nH]c2c1)CCCN3 [Example 81, 10-Methoxy-8-{[(2-methoxyethyl)(methyl)amino]methyl}-1,2,3,4-tetrahydrobenzo[h][1,6]naphthyridine-5(6H)-one dihydrochloride]	110 nM
COc1cc(CN2CC=CC2)cc2[nH]c(=O)c3c(c12)NCCC3 [Example 82, 8-[(2,5-Dihydro-1H-pyrrole-1-yl)methyl]-10-methoxy-1,2,3,4-tetrahydrobenzo[h][1,6]naphthyridine-5(6H)-one dihydrochloride]	60 nM
COc1cc(CN(C)CCOC(C)C)cc2[nH]c(=O)c3c(c12)NCCC3 [Example 83, 8-{[(2-Isopropoxyethyl)(methyl)amino]methyl}-10-methoxy-1,2,3,4-tetrahydrobenzo[h][1,6]naphthyridine-5(6H)-one dihydrochloride]	320 nM
COc1cc(CN2CCCCC2)cc2[nH]c(=O)c3c(c12)NCCC3 [Example 84, 10-Methoxy-8-(piperidine-1-ylmethyl)-1,2,3,4-tetrahydrobenzo[h][1,6]naphthyridine-5(6H)-one dihydrochloride]	150 nM
CCN(CC)Cc1cc(OC)c2c3c(c(=O)[nH]c2c1)CCCN3 [Example 86, 8-[(Diethylamino)methyl]-10-methoxy-1,2,3,4-tetrahydrobenzo[h][1,6]naphthyridine-5(6H)-one dihydrochloride]	110 nM
COc1cc(CNC(C)C)cc2[nH]c(=O)c3c(c12)NCCC3 [Example 88, 8-[(Isopropylamino)methyl]-10-methoxy-1,2,3,4-tetrahydrobenzo[h][1,6]naphthyridine-5 (6H)-one dihydrochloride]	110 nM
COc1cc(CNC2CCCC2)cc2[nH]c(=O)c3c(c12)NCCC3 [Example 89, 8-[(Cyclopentylamino)methyl]-10-methoxy-1,2,3,4-tetrahydrobenzo[h][1,6]naphthyridine-5(6H)-one dihydrochloride]	270 nM
COc1cc(CN2CC(C)OC(C)C2)cc2[nH]c(=O)c3c(c12)NCCC3 (stereo not shown) [Example 90, 8-[(2,6-Dimethylmorpholino)methyl]-10-methoxy-1,2,3,4-tetrahydrobenzo[h][1,6]naphthyridine-5(6H)-one dihydrochloride]	780 nM
